Results published in ChEMBL document CHEMBL4507292 (2021).

Key:
[1] = biological target: L-type calcium channel, benzothiazepine site (Cav1.2 alpha-1C) (Homo sapiens, UniProt Q13936); assay: Inhibition of Calcium Channel L-Type, Benzothiazepine at 10 µM in the Eurofins-Panlabs radioligand binding assay (Eurofins_assay_214510); parameters: ligand concentration 2 nM, non-specific ligand with concentration 10 µM Diltiazem, incubation time 3h, incubation temperature 4 °C; settings: male, Wistar, rat, rat whole brain preparation, probe [3H] Diltiazem, 2 nM; compound concentration 10 uM; target entry is the homologue from another species
Rattus norvegicus = species on record: Rattus norvegicus; assay: Inhibition of Glutamate, NMDA, Phencyclidine at 10 µM in the Eurofins-Panlabs radioligand binding assay (Eurofins_assay_233000); assay type: protein-complex assay
[2] = biological target: Prostaglandin G/H synthase 1 (Homo sapiens) (UniProt P23219); assay: Inhibition of Cyclooxygenase COX-1 at compound concentration of 10.0 uM in the Eurofins-Panlabs enzyme assay (Eurofins_assay_116020); settings: Compound concentration 10.0 uM
[3] = (§1) Inhibition of Phosphodiesterase PDE4 at compound concentration of 10.0 uM in the Eurofins-Panlabs enzyme assay (Eurofins_assay_154000); assay type: protein assay, Homo sapiens; parameters: substrate with concentration 1.01 uM [3 H]cAMP + cAMP, incubation time 20 min, incubation temperature 25 C
Homo sapiens [4] = species on record: Homo sapiens; assay: as §1; assay type: protein assay; parameters: substrate with concentration 1.01 uM [3 H]cAMP + cAMP, incubation time 20 min, incubation temperature 25 C
[5] = Inhibition of Atrial Natriuretic Factor (ANF) at 10 µM in the Eurofins-Panlabs radioligand binding assay (Eurofins_assay_211000); settings: Cavia porcellus
[6] = biological target: Calcitonin receptor (Homo sapiens) (UniProt P30988); assay: Inhibition of Calcitonin at 10 µM in the Eurofins-Panlabs radioligand binding assay (Eurofins_assay_213610)
[7] = biological target: Peroxisome proliferator-activated receptor gamma (Homo sapiens) (UniProt P37231); assay: PPARgamma Eurofins-Panlabs radioligand binding assay; parameters: ligand concentration 5 nM, non-specific ligand with concentration 0.5 µM L-797773, incubation time 18 h, incubation temperature 15 °C; settings: Compound concentration 10.0 uM
Caspase-7 (Homo sapiens) = Caspase-7 (Homo sapiens) (UniProt P55210); assay: Peptidase, CASP7 (Caspase 7) Eurofins-Panlabs enzyme assay; settings: Compound concentration 10.0 uM
[8] = biological target: cGMP-dependent 3',5'-cyclic phosphodiesterase (Homo sapiens, UniProt O00408); assay: Phosphodiesterase PDE2 Eurofins-Panlabs enzyme assay; parameters: substrate with concentration [3H] cAMP + cAMP, incubation time 20 min, incubation temperature 25 °C
[9] = (§2) Phosphodiesterase PDE6 Eurofins-Panlabs enzyme assay; parameters: species or system Bos taurus; substrate with concentration [3H] cGMP + cGMP, incubation time 20 min, incubation temperature 25 °C
Bos taurus = species on record: Bos taurus; assay: as §2; parameters: substrate with concentration [3H] cGMP + cGMP, incubation time 20 min, incubation temperature 25 °C
[10] = biological target: Vascular endothelial growth factor receptor 1 (Homo sapiens) (UniProt P17948); assay: Protein Tyrosine Kinase, FLT1 (VEGFR-1) Eurofins-Panlabs enzyme assay; settings: Compound concentration 10.0 uM
Insulin receptor = Insulin receptor (Homo sapiens, UniProt P06213); assay: Protein Tyrosine Kinase, Insulin Receptor Eurofins-Panlabs enzyme assay; parameters: substrate with concentration 10 µg/mL […], incubation time 60 min, incubation temperature 25 °C
[11] = Protein Tyrosine Kinase, pp60 c-SRC Eurofins-Panlabs enzyme assay
[12] = biological target: Type-2 angiotensin II receptor (Homo sapiens) (UniProt P50052); assay: Angiotensin AT2 Eurofins-Panlabs radioligand binding assay; assay type: protein assay; settings: Compound concentration 10.0 uM
[13] = biological target: C-C chemokine receptor type 1 (Homo sapiens) (UniProt P32246); assay: Chemokine CCR1 Eurofins-Panlabs radioligand binding assay; settings: Compound concentration 10.0 uM
[14] = (§3) Cholecystokinin CCK2 (CCKB) Eurofins-Panlabs radioligand binding assay; parameters: species or system Homo sapiens; ligand concentration 0.072 nM, non-specific ligand with concentration 1 µM Sincalide, incubation time 3 h, incubation temperature 25 °C
Homo sapiens [15] = species on record: Homo sapiens; assay: as §3; parameters: ligand concentration 0.072 nM, non-specific ligand with concentration 1 µM Sincalide, incubation time 3 h, incubation temperature 25 °C
[16] = biological target: Melatonin receptor (Gallus gallus) (UniProt P49288+P51050+P49285); assay: Melatonin MT, Non-Selective Eurofins-Panlabs radioligand binding assay; assay type: protein assay; settings: Compound concentration 10.0 uM
[17] = biological target: Oxytocin receptor (Homo sapiens) (UniProt P30559); assay: Oxytocin Eurofins-Panlabs radioligand binding assay; settings: Compound concentration 10.0 uM
[18] = biological target: Somatostatin receptor type 2 (Homo sapiens) (UniProt P30874); assay: Somatostatin sst2 Eurofins-Panlabs radioligand binding assay; parameters: ligand concentration 0.1 nM; settings: Compound concentration 10.0 uM
[19] = biological target: Sodium-dependent serotonin transporter (Homo sapiens, UniProt P31645); assay: Transporter, Serotonin (5- Hydroxytryptamine) (SERT) Eurofins-Panlabs radioligand binding assay; parameters: ligand concentration 0.15 nM, non-specific ligand with concentration 10 µM Imipramine, incubation time 3 h, incubation temperature 4 °C
[20] = biological target: Endothelin receptor type B (Homo sapiens) (UniProt P24530); settings: Compound concentration 10.0 uM
[21] = biological target: Glutamate NMDA receptor (Rattus norvegicus) (UniProt P35439+Q00959+Q00960+Q00961+Q62645+Q8VHN2+Q9R1M7); settings: Compound concentration 10.0 uM
[22] = biological target: Histamine H1 receptor (Homo sapiens) (UniProt P35367); settings: Compound concentration 10.0 uM
[23] = biological target: Sodium-dependent noradrenaline transporter (Homo sapiens, UniProt P23975)
[24] = biological target: cGMP-specific 3',5'-cyclic phosphodiesterase (Homo sapiens, UniProt O76074)
[25] = biological target: Beta-3 adrenergic receptor (Homo sapiens, UniProt P13945)
[26] = biological target: T1, 5-hydroxytryptamine receptor 2C (Homo sapiens) (UniProt P28335); settings: Compound concentration 10.0 uM
T1 sequence (whole entry): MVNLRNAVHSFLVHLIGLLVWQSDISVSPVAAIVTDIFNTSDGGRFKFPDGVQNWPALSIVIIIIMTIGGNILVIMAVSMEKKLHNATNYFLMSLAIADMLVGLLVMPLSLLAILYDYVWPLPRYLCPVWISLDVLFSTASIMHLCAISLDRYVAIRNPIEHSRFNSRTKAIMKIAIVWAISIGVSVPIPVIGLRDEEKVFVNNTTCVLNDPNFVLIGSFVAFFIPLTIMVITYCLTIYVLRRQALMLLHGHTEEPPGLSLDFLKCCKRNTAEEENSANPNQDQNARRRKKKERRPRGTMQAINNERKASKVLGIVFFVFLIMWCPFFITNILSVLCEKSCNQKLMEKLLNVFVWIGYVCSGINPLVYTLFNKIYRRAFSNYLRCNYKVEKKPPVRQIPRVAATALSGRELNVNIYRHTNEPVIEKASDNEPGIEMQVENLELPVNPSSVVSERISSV

[27] = biological target: 5-hydroxytryptamine receptor 2A (Homo sapiens) (UniProt P28223); settings: Compound concentration 10.0 uM
[28] = biological target: Gamma-aminobutyric acid type B receptor subunit 1 (Homo sapiens) (UniProt Q9UBS5); settings: Rattus norvegicus; Compound concentration 10.0 uM
[29] = Compound concentration 100.0 uM

Chain of cGMP-dependent 3',5'-cyclic phosphodiesterase (O00408 whole entry): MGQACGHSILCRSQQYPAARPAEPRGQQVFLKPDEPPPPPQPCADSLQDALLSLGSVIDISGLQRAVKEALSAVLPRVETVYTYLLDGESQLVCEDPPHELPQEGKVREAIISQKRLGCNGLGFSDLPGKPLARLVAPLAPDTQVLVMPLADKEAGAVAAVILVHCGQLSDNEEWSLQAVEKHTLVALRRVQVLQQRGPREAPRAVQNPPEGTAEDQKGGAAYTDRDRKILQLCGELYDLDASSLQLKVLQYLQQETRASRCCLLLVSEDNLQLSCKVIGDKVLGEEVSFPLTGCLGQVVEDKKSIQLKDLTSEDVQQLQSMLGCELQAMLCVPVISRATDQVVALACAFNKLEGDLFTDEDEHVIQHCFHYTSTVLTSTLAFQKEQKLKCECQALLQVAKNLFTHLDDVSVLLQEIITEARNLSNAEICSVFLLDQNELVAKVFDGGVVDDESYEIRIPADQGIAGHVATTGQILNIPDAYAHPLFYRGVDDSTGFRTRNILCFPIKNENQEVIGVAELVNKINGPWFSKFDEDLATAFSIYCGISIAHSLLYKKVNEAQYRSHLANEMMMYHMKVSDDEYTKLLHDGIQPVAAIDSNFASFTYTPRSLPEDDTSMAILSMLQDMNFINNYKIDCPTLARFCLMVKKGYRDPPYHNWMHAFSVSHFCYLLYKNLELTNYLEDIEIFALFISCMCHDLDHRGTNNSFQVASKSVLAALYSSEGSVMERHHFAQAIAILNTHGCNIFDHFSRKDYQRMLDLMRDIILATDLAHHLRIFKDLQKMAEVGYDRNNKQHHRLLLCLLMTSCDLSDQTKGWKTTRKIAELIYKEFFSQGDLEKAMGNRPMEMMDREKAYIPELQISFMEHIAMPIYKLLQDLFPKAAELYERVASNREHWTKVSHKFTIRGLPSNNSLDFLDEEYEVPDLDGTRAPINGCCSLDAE
Chain of Insulin receptor (P06213 28-758 limits assumed): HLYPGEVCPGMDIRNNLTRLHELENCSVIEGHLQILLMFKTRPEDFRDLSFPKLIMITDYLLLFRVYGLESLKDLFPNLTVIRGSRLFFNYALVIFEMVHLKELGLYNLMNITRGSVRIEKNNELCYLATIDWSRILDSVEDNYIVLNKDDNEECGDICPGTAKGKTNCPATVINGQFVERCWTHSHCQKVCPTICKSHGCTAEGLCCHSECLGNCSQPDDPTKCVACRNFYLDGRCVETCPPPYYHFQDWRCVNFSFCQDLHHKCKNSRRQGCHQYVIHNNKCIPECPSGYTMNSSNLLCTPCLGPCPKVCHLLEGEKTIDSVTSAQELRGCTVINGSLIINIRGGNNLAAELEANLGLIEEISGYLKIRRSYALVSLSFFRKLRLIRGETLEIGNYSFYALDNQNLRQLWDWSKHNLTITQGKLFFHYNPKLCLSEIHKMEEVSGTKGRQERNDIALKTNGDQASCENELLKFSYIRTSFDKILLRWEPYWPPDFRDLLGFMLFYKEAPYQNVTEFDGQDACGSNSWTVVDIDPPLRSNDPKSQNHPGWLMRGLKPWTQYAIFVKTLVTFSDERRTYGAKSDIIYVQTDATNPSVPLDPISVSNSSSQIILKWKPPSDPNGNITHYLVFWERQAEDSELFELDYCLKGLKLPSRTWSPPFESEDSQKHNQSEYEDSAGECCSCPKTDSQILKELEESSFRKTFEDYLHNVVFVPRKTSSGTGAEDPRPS
Chain of Insulin receptor (P06213 763-1382 limits assumed): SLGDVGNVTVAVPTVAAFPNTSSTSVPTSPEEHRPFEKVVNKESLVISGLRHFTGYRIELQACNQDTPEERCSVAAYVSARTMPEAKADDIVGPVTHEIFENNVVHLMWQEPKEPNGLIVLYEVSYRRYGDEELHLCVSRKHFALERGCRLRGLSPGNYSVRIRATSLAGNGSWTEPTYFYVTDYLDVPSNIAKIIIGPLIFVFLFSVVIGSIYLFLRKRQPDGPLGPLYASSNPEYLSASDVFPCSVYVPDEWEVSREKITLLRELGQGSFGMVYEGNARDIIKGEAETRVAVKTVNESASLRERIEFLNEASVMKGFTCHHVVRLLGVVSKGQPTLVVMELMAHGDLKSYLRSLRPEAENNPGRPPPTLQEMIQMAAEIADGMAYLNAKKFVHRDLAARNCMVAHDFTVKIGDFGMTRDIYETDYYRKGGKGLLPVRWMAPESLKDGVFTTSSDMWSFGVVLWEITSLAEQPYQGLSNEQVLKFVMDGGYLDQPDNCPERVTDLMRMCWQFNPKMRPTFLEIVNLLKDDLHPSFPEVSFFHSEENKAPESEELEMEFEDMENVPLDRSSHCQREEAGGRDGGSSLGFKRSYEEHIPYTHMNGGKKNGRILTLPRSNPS
Chain of Beta-3 adrenergic receptor (P13945 whole entry, looked up): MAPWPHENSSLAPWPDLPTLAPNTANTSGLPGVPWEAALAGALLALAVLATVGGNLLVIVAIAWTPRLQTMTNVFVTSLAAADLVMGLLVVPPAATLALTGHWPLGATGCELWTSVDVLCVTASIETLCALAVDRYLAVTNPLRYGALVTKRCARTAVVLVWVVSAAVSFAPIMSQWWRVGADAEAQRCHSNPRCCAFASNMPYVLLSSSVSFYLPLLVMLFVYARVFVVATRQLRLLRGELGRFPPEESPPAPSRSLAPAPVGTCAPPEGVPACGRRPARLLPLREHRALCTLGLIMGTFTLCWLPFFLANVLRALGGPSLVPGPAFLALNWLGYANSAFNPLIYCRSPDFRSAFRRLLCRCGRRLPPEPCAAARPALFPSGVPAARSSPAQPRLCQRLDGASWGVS
Chain of Sodium-dependent noradrenaline transporter (P23975 whole entry): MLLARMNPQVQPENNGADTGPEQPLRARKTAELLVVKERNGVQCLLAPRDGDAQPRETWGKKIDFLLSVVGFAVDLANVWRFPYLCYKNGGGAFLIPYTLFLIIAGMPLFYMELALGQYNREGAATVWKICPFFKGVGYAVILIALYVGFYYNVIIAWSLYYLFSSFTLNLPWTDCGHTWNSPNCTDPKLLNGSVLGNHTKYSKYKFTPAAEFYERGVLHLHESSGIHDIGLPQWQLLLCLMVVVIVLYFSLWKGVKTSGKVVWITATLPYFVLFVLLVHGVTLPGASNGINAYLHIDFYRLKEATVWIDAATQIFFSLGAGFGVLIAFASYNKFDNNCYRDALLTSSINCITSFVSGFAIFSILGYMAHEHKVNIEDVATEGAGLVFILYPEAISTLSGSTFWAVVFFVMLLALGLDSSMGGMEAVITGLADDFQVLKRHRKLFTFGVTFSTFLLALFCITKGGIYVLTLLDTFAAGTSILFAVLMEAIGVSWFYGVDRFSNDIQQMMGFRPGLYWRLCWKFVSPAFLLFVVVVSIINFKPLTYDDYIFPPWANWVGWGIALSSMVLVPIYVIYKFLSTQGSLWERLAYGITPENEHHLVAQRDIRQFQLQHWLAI
Chain of Peroxisome proliferator-activated receptor gamma (Homo sapiens) (P37231 whole entry): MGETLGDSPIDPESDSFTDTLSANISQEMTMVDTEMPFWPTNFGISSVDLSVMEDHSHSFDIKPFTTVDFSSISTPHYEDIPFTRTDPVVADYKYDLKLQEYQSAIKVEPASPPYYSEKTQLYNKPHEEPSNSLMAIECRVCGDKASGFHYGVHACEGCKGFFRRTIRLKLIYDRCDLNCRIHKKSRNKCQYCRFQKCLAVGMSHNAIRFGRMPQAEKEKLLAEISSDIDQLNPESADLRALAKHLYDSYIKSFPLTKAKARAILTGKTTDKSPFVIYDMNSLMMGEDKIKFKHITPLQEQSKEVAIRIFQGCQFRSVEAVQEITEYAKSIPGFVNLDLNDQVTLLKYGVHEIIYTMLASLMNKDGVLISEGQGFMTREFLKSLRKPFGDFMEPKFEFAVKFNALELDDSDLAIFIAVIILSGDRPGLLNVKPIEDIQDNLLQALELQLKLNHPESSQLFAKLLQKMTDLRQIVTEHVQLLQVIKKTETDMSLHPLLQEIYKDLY
Chain of Caspase-7 (Homo sapiens) (P55210 24-198 limits assumed): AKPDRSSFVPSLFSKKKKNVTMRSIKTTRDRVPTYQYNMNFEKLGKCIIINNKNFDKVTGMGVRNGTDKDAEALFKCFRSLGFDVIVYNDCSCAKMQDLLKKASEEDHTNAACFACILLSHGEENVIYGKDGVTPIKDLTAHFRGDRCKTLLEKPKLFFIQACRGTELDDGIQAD
Chain of Caspase-7 (Homo sapiens) (P55210 207-303 limits assumed): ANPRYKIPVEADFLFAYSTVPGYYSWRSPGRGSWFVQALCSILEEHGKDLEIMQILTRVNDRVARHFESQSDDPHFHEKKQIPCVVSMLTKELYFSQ
Chain of 5-hydroxytryptamine receptor 2A (Homo sapiens) (P28223 whole entry): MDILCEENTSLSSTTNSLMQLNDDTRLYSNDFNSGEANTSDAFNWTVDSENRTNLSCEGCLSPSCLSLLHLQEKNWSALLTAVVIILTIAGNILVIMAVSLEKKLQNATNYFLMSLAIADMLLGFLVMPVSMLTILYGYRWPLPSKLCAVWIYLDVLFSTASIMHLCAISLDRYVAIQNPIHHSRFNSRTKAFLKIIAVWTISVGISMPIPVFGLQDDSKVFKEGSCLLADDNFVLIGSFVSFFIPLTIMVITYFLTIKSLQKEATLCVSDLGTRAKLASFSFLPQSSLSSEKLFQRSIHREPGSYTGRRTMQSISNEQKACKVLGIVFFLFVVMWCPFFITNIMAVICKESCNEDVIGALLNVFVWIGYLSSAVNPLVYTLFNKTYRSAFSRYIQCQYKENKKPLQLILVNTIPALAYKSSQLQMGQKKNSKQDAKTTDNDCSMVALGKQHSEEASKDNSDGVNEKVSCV
Chain of Somatostatin receptor type 2 (Homo sapiens) (P30874 whole entry): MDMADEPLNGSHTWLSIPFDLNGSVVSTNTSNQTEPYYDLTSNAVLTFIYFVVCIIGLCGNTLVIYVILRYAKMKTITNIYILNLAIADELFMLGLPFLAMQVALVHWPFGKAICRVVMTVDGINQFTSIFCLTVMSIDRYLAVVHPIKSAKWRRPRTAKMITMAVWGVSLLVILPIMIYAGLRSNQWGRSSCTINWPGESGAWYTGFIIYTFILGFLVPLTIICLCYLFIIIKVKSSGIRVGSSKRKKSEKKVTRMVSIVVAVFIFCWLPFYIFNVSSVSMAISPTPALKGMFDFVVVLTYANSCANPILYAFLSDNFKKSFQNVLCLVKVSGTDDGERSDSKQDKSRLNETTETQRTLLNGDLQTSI

Which results are given for `O=C(O)c1cc(-c2ccc(C3CCNCC3)cc2)c2ccc(-c3ccc(C(F)(F)F)cc3)cc2c1` [PPTN]?
inhibition at 3 h, 10 µM [1]: 11% (not active); inhibition (Rattus norvegicus): 17%; inhibition [2]: 4%; IC50 [3]: 100 µM; inhibition (Homo sapiens [4]; Compound concentration 0.1 uM): -6%; inhibition (Homo sapiens [4]; Compound concentration 1.0 uM): 0%; inhibition (Homo sapiens [4]; Compound concentration 10.0 uM): 24%; inhibition (Homo sapiens [4]; [29]): 49%; inhibition at 10 µM [5]: -1% (not active); inhibition [6]: 5%; inhibition [7]: 4%; inhibition (Caspase-7 (Homo sapiens)): -6%; IC50 [8]: 86.9 µM; inhibition ([8]; Compound concentration 1.0 uM): -3%; inhibition ([8]; Compound concentration 10.0 uM): 4%; inhibition [8, 29]: 55%; IC50 [9]: 32.9 µM; inhibition (Bos taurus; Compound concentration 0.1 uM): 2%; inhibition (Bos taurus; Compound concentration 1.0 uM): 4%; inhibition (Bos taurus; Compound concentration 10.0 uM): 35%; inhibition (Bos taurus; [29]): 66%; inhibition [10]: -2%; IC50 (Insulin receptor): 4.31 µM; inhibition (Insulin receptor; Compound concentration 0.01 uM): 1%; inhibition (Insulin receptor; Compound concentration 0.1 uM): -10%; inhibition (Insulin receptor; Compound concentration 1.0 uM): 14%; inhibition (Insulin receptor; Compound concentration 10.0 uM): 75%; IC50 [11]: 9.02 µM; inhibition [12]: 11%; inhibition [13]: -9%; IC50 [14]: 10 µM; inhibition (Homo sapiens [15]; Compound concentration 0.01 uM): 3%; inhibition (Homo sapiens [15]; Compound concentration 0.1 uM): -1%; inhibition (Homo sapiens [15]; Compound concentration 1.0 uM): 0%; inhibition (Homo sapiens [15]; Compound concentration 10.0 uM): 48%; inhibition [16]: -7%; inhibition [17]: 0%; inhibition [18]: 29%; IC50 [19]: 9.47 µM; Ki [19]: 5.03 µM; inhibition ([19]; Compound concentration 0.01 uM): -7%; inhibition ([19]; Compound concentration 0.1 uM): -9%; inhibition ([19]; Compound concentration 1.0 uM): -6%; inhibition ([19]; Compound concentration 10.0 uM): 58%; inhibition [20]: -1%; inhibition [21]: 1%; inhibition [22]: -1%; inhibition ([23]; Compound concentration 0.01 uM): 6%; inhibition ([23]; Compound concentration 0.1 uM): -2%; inhibition ([23]; Compound concentration 1.0 uM): 20%; inhibition ([23]; Compound concentration 10.0 uM): 78%; inhibition ([24]; Compound concentration 0.1 uM): -3%; inhibition ([24]; Compound concentration 1.0 uM): -8%; inhibition ([24]; Compound concentration 10.0 uM): 22%; inhibition [24, 29]: 72%; inhibition ([25]; Compound concentration 0.01 uM): -2%; inhibition ([25]; Compound concentration 0.1 uM): -8%; inhibition ([25]; Compound concentration 1.0 uM): 0%; inhibition ([25]; Compound concentration 10.0 uM): 53%; inhibition [26]: 20%; inhibition [27]: 42%; inhibition [28]: 3%
